From ChEMBL document CHEMBL1201862, “PubChem BioAssay data set” (2004)
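How tested: cells in 96-well plates exposed to compound for 48 hours at five concentrations. GI50 is the concentration that inhibits growth by half.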 Activity calls are given as the source filed them. No stated cut-off is given here; in the data, active = GI50 up to about 1.1 µM and inactive = higher.

Legend:
Experiment in all cases: NCI tumour cell line growth inhibition, 48 h
SW-620 = system: SW-620
HT-29 = system: HT-29
SR = system: SR
SN12C = system: SN12C
CAKI-1 = system: CAKI-1
SK-MEL-28 = system: SK-MEL-28
SNB-19 = system: SNB-19
LOX IMVI = system: LOX IMVI
NCI-H522 = system: NCI-H522
Malme-3M = system: Malme-3M
NCI-H23 = system: NCI-H23
NCI-H460 = system: NCI-H460
786-0 = system: 786-0
K562 = system: K562
MDA-N = system: MDA-N
OVCAR-5 = system: OVCAR-5
A549 = system: A549
SK-MEL-2 = system: SK-MEL-2
RXF 393 = system: RXF 393
RPMI-8226 = system: RPMI-8226

| Structure (SMILES) | GI50 (SW-620) | GI50 (HT-29) | GI50 (SR) | GI50 (SN12C) | GI50 (CAKI-1) | GI50 (SK-MEL-28) | GI50 (SNB-19) | GI50 (LOX IMVI) | GI50 (NCI-H522) | GI50 (Malme-3M) | GI50 (NCI-H23) | GI50 (NCI-H460) | GI50 (786-0) | GI50 (K562) | GI50 (MDA-N) | GI50 (OVCAR-5) | GI50 (A549) | GI50 (SK-MEL-2) | GI50 (RXF 393) | GI50 (RPMI-8226) |
| --- | --- | --- | --- | --- | --- | --- | --- | --- | --- | --- | --- | --- | --- | --- | --- | --- | --- | --- | --- | --- |
| COc1cccc2c1-c1ccccc1[C@H](Nc1ccccc1)[C@@]2(C)O | 4.35 µM (inactive) | 3.78 µM (inactive) | 0.865 µM (active) | 4.55 µM (inactive) | 4.1 µM (inactive) | 11.3 µM (inactive) | 5.81 µM (inactive) | 10.1 µM (inactive) | 2.37 µM (inactive) | 7.93 µM (inactive) | 7.67 µM (inactive) | 3.91 µM (inactive) | 5.45 µM (inactive) | 3.31 µM (inactive) | 1.71 µM (inactive) | 11.6 µM (inactive) | 7.5 µM (inactive) | 6.12 µM (inactive) | 4.6 µM (inactive) |  |
| O=S(=O)(NNc1ccccc1)c1ccccc1 | 26.3 µM (inactive) | 11.5 µM (inactive) | 11.2 µM (inactive) | 4.49 µM (inactive) | 1.28 µM (inactive) | 48.2 µM (inactive) | 39.7 µM (inactive) | 0.834 µM (active) | 8.95 µM (inactive) |  | 25.5 µM (inactive) | 3.96 µM (inactive) | 52.6 µM (inactive) | 4.23 µM (inactive) | 12.2 µM (inactive) | 17.1 µM (inactive) | 8.87 µM (inactive) | 3.26 µM (inactive) | 7.73 µM (inactive) | 3.71 µM (inactive) |
| CC(=O)Nc1cc(/C=C\C(=O)N2CC(CCl)c3c2cc(N)c2ccccc32)n(C)n1 (configuration not stated) | 0.0123 µM (active) |  | < 0.001 µM (active) | < 0.001 µM (active) | 0.00129 µM (active) | 0.0144 µM (active) | 0.0386 µM (active) | 0.00879 µM (active) |  | 0.012 µM (active) | 0.00192 µM (active) | < 0.001 µM (active) | 0.00143 µM (active) | 0.00417 µM (active) | 0.0185 µM (active) | 0.0215 µM (active) | 0.00614 µM (active) | 0.0166 µM (active) | < 0.001 µM (active) | 0.0179 µM (active) |
| COc1ccc(N2C(=O)C3c4[nH]c5ccccc5c4C4CCC(C(C)(C)C)CC4C3C2=O)c(C)c1 (configuration not stated) | > 100 µM (inactive) | > 100 µM (inactive) | > 100 µM (inactive) | > 100 µM (inactive) | > 100 µM (inactive) | > 100 µM (inactive) | > 100 µM (inactive) |  | > 100 µM (inactive) |  | > 100 µM (inactive) | > 100 µM (inactive) | > 100 µM (inactive) | > 100 µM (inactive) | > 100 µM (inactive) |  | > 100 µM (inactive) |  | > 100 µM (inactive) | > 100 µM (inactive) |
